Source: US8703104B2, “Use of metal astringents for the treatment of hairy heel warts” (Ecolab USA Inc, priority 2007, dated 2014)
Where two headings read alike, the source gives them in different places.

Tested on: hairy heel wart lesions on the cows
[1] = Day 0, prior to first treatment
[2] = Grading Period 1 (Day 0), one day prior to first treatment

## O=S(=O)([O-])[O-].[Cu+2] [CuSO4, copper sulfate]
[1]
  Lesion Appearance Score Distribution: number of cows with Grade Score 4 (Dead lesion): 1
  Lesion Pain Score Distribution: number of cows with Grade Score 1 (Minor pain): 10
  Lesion Size Score Distribution: number of cows with Grade Score 1 (Dime Size): 6
  Lesion Size Score Distribution: number of cows with Grade Score 2 (Quarter Size): 5
  Locomotion Score Distribution: number of cows with Grade Score 1 (Stands and walks normal): 5
Day 5
  Lesion Appearance Score Distribution: number of cows with Grade Score 4 (Dead lesion): 5
  Lesion Pain Score Distribution: number of cows with Grade Score 1 (Minor pain): 6
  Lesion Size Score Distribution: number of cows with Grade Score 1 (Dime Size): 4
  Lesion Size Score Distribution: number of cows with Grade Score 2 (Quarter Size): 4
  Locomotion Score Distribution: number of cows with Grade Score 1 (Stands and walks normal): 3
Day 10
  Lesion Appearance Score Distribution: number of cows with Grade Score 4 (Dead lesion): 6
  Lesion Pain Score Distribution: number of cows with Grade Score 1 (Minor pain): 9
  Lesion Size Score Distribution: number of cows with Grade Score 1 (Dime Size): 10
  Lesion Size Score Distribution: number of cows with Grade Score 2 (Quarter Size): 1
  Locomotion Score Distribution: number of cows with Grade Score 1 (Stands and walks normal): 3
Day 14
  Lesion Appearance Score Distribution: number of cows with Grade Score 4 (Dead lesion): 5
  Lesion Pain Score Distribution: number of cows with Grade Score 1 (Minor pain): 5
  Lesion Size Score Distribution: number of cows with Grade Score 1 (Dime Size): 4
  Lesion Size Score Distribution: number of cows with Grade Score 2 (Quarter Size): 6
  Locomotion Score Distribution: number of cows with Grade Score 1 (Stands and walks normal): 8
Day 19
  Lesion Appearance Score Distribution: number of cows with Grade Score 4 (Dead lesion): 3
  Lesion Pain Score Distribution: number of cows with Grade Score 1 (Minor pain): 5
  Lesion Size Score Distribution: number of cows with Grade Score 1 (Dime Size): 8
  Lesion Size Score Distribution: number of cows with Grade Score 2 (Quarter Size): 3
  Locomotion Score Distribution: number of cows with Grade Score 1 (Stands and walks normal): 8
[2]
  Average lesion color score (scale 0 to 5): 1.64
  Average lesion pain score (scale 0 to 2): 1.09
  Average locomotion score (scale 1-5): 1.82
Grading Period 2 (Day 5)
  Average lesion color score (scale 0 to 5): 2.20
  Average lesion pain score (scale 0 to 2): 0.60
  Average lesion size score (scale 0 to 3): 1.80
  Average locomotion score (scale 1-5): 1.90
Grading Period 3 (Day 10)
  Average lesion color score (scale 0 to 5): 2.45
  Average lesion pain score (scale 0 to 2): 1.00
  Average lesion size score (scale 0 to 3): 1.09
  Average locomotion score (scale 1-5): 1.82
Grading Period 4 (Day 14)
  Average lesion color score (scale 0 to 5): 3.10
  Average lesion pain score (scale 0 to 2): 0.50
  Average lesion size score (scale 0 to 3): 1.60
  Average locomotion score (scale 1-5): 1.20
Grading Period 5 (Day 19)
  Average lesion pain score (scale 0 to 2): 0.45
  Average lesion size score (scale 0 to 3): 1.27
  Average locomotion score (scale 1-5): 1.55
